This note sets out measurements from US20030114385A1, “Viral enzyme activated prototoxophores and use of same to treat viral infections” (priority 2001, published 2003).

Structures are written as SMILES. Several values for one entry are separate records, joined by “and”; a condition that tells them apart may be missing. Equal entries are not always repeated. Where two headings read alike, the source gives them in different places. Square brackets hold non-standard residues; d marks the D form. Peptide text beside a SMILES is read from it. * marks the point of attachment. NH(4-NH2-anthraquinon-1-yl) = Nc1ccc(N*)c2c1C(=O)c1ccccc1C2=O; Cha = N[C@@H](CC1CCCCC1)C(=O)O; Abu = CC[C@H](N)C(=O)O A value given as a limit tells only on which side of the number the result lay.

What all share (type): cell-based, human
Test [1] deals with MCF7TDX (Tomudex resistant breast carcinoma cell line). How it is done: (§1) IC50 values of various potential HCV ECTA compounds (5761-5768) were determined using CCD 18co (normal colon epithelial cells), Det551 (skin fibroblasts), MCF7TDX (Tomudex resistant breast carcinoma cell line), HepG2 and Hep3B (hepatocellular carcinoma cell lines). Compound 5759 mimics the “released toxin” and serves as a positive control. IC50=the concentration of HCV ECTA compound that inhibits cellular growth by 50%.
(§2) Normal human colon epithelial cells (CCD18co), skin fibroblasts (Det551) Hepatocellular carcinoma cell lines (Hep3B and HepG2), breast cancer cell line (MCF7) and fibrosarcoma cell line (HT1080) were all purchased from the American Type Culture Collection (ATCC; Rockville Md.). MCF7TDX, human breast carcinoma cells resistant to 2 μM Tomudex™ have been described (ref. 98). Cells were cultured at 37° C. in 95% humidified air/5% CO2 in RPMI 1640 culture medium containing 10% fetal calf serum (Life Technologies) and penicillin/streptomycin/fungizone. MCF7TDX cells were maintained continuously in 2 μM Tomudex™. Normal cells were passaged a maximum of 15 times to avoid senescence.
(§3) The cytotoxic activity of various candidate prototoxophores was assessed by determining the IC50 value (concentration that inhibits cellular growth by 50%) in cellular proliferation assays and compared with the results obtained using the 5759 toxophore. Exponentially growing cells were transferred at a density of 1000 to 5500 cells per well to a 96 well tissue culture plate and allowed to attach for 24 hr. HCV ECTA compounds were applied in duplicate half log serial dilutions. After an additional 72 hr incubation, surviving adherent cells were washed once with PBS and stained with 0.5% crystal violet in methanol. Sorenson's buffer (0.025 M sodium citrate, 0.025 M citric acid in 50% ethanol) was added to each well and absorbance at 540 nm was monitored (absorbance at 540 nm correlates with cell survival; see refs. 103 to 105). Semi-adherent or non-adherent cells were stained with CYQUANT stain according to the protocol provided with the cell proliferation assay kit (C-7026; Molecular Probes; Eugene Oreg.). Fluorescence (485 nm excitation, 535 nm emission) was monitored. IC50 values were derived from sigmoid curves fit according to the Hill inhibitory Emax model (ref. 106).
(§4) Det551 or MCF7TDX cells were treated with compounds 5759, 5761, 5763 and 5767 for 2, 6, 12, 24 and 72 hours. After the indicated times the compounds were removed, the cells were washed, incubated for a total of 72 hours and IC50 values were determined. IC50=the concentration of HCV ECTA compound that inhibits cellular growth by 50%.
(§5) Cells were treated with compounds 5759, 5762 or 5763 for 15 hours. After removal of the compounds, the cells were washed, incubated for a total of 72 hours and IC50 values were determined. IC50=the concentration of HCV ECTA compound that inhibits cellular growth by 50%.

The test system of test [2] is Det551 (skin fibroblasts). Here is the method:
as §1, §2, §3, §4, §5

The test system of test [3] is CCD18co (normal colon epithelial cells). Here is the method:
as §1, §2, §3, §5

The test system of test [4] is HepG2 (hepatocellular carcinoma cell line). How it is done:
as §1, §2, §3, §5

Test [5] concerns Hep3B (hepatocellular carcinoma cell line). Here is the method:
as §1, §2, §3, §5

Setting [6] is: MCF7TDX, 72 hr incubation, read-out: IC50 (concentration that inhibits cellular growth by 50%).
Where [7] appears, read: Det551, 2 h exposure, washed, total 72 hours, read-out: IC50 after various times of drug exposure.
Setting [8] is: Det551, 6 h exposure, washed, total 72 hours, read-out: IC50 after various times of drug exposure.
[9] abbreviates: Det551, 12 h exposure, washed, total 72 hours, read-out: IC50 after various times of drug exposure.
The mark [10] stands for this setting: Det551, 24 h exposure, washed, total 72 hours, read-out: IC50 after various times of drug exposure.
[11] abbreviates: Det551, 72 h exposure, read-out: IC50 after various times of drug exposure.
Setting [12] is: Det551, 72 hr incubation, read-out: IC50 (concentration that inhibits cellular growth by 50%).
Setting [13] is: 72 hr incubation, read-out: IC50 (concentration that inhibits cellular growth by 50%).
[14] abbreviates: HepG2, 72 hr incubation, read-out: IC50 (concentration that inhibits cellular growth by 50%).
The mark [15] stands for this setting: MCF7TDX, 15 hours exposure, washed, total 72 hours, read-out: IC50 after 15 hour of drug exposure.
[16] abbreviates: Det551, 15 hours exposure, washed, total 72 hours, read-out: IC50 after 15 hour of drug exposure.
The mark [17] stands for this setting: 15 hours exposure, washed, total 72 hours, read-out: IC50 after 15 hour of drug exposure.
Setting [18] is: HepG2, 15 hours exposure, washed, total 72 hours, read-out: IC50 after 15 hour of drug exposure.
Setting [19] is: MCF7/TDX, 2 h exposure, washed, total 72 hours, read-out: IC50 after various times of drug exposure.
[20] abbreviates: MCF7/TDX, 6 h exposure, washed, total 72 hours, read-out: IC50 after various times of drug exposure.
[21] abbreviates: MCF7/TDX, 12 h exposure, washed, total 72 hours, read-out: IC50 after various times of drug exposure.
Setting [22] is: MCF7/TDX, 24 h exposure, washed, total 72 hours, read-out: IC50 after various times of drug exposure.
[23] abbreviates: MCF7/TDX, 72 h exposure, read-out: IC50 after various times of drug exposure.

`CC[C@H](NC(=O)[C@H](CC(C)C)NC(=O)[C@@H](NC(=O)[C@H](C)NC(=O)[C@H](CCC(=O)O)NC(=O)[C@H](CC(=O)O)NC(C)=O)C(C)C)C(=O)N[C@@H](CO)C(=O)NCC(=O)NCC(=O)Nc1ccc(N)c2c1C(=O)c1ccccc1C2=O` [Compound 5767, Acetyl-Asp-Glu-Ala-Val-Leu-ABA-Ser-Gly-Gly-toxin] (Ac-DEAVL[Abu]SGG-{NH(4-NH2-anthraquinon-1-yl)}): the IC50 was 8 µM in test [1] (setting [6]); more than 150 µM in test [2] (setting [7]); 13 µM in test [2] (setting [8]); 11 µM in test [2] (setting [9]); 11 µM in test [2] (setting [10]); 8 µM in test [2] (setting [11]). For the same compound, the IC50 in test [2] (setting [12]) was 5.1 µM and 8 µM; in test [3] (setting [13]), 13.2 µM; in test [4] (setting [14]), 13.8 µM.

Consider `CC(=O)N[C@@H](CC(=O)O)C(=O)N[C@@H](CCC(=O)O)C(=O)N[C@@H](C)C(=O)N[C@H](C(=O)N[C@@H](CC(C)C)C(=O)N[C@@H](CS)C(=O)N[C@@H](CO)C(=O)NCC(=O)NCC(=O)Nc1ccc(N)c2c1C(=O)c1ccccc1C2=O)C(C)C` [Compound 5762, Acetyl-Asp-Glu-Ala-Val-Leu-Cys-Ser-Gly-Gly-toxin] (Ac-DEAVLCSGG-{NH(4-NH2-anthraquinon-1-yl)}), for which the IC50 was 132 µM in test [1] (setting [15]); 46 µM in test [2] (setting [16]); 77 µM in test [3] (setting [17]); more than 150 µM in test [5] (setting [17]); more than 150 µM in test [4] (setting [18]).

For the compound `CC(=O)N[C@@H](CC(=O)O)C(=O)N[C@@H](CCC(=O)O)C(=O)N1CCC[C@H]1C(=O)N[C@@H](CC(C)C)C(=O)N[C@@H](C)C(=O)N[C@@H](CS)C(=O)N[C@@H](CO)C(=O)NCC(=O)NCC(=O)Nc1ccc(N)c2c1C(=O)c1ccccc1C2=O` [Compound 5765, Acetyl-Asp-Glu-Pro-Leu-Ala-Cys-Ser-Gly-Gly-toxin] (Ac-DEPLACSGG-{NH(4-NH2-anthraquinon-1-yl)}), the IC50 in test [2] (setting [12]) is 15 µM and 16 µM; in test [3] (setting [13]), 28 µM and 33 µM and 38 µM; in test [5] (setting [13]) it was 25 µM and 26 µM; in test [4] (setting [14]), 18 µM and 21 µM.

As for `CC[C@H](NC(=O)[C@H](CC1CCCCC1)NC(=O)[C@H](CCC(=O)O)NC(=O)[C@H](Cc1ccccc1)NC(=O)[C@H](CCC(=O)O)NC(=O)[C@H](CC(=O)O)NC(C)=O)C(=O)N[C@@H](CO)C(=O)NCC(=O)NCC(=O)Nc1ccc(N)c2c1C(=O)c1ccccc1C2=O` [Compound 5766, Acetyl-Asp-Glu-Phe-Glu-Cha-ABA-Ser-Gly-Gly-toxin] (Ac-DEFE[Cha][Abu]SGG-{NH(4-NH2-anthraquinon-1-yl)}), the IC50 worked out at 8.5 µM in test [1] (setting [6]), 5.3 µM in test [2] (setting [12]), 10.2 µM in test [3] (setting [13]) and 24.5 µM in test [4] (setting [14]).

Take `CC[C@H](NC(=O)[C@@H]1CCCN1C(=O)[C@@H](NC(=O)[C@@H](NC(=O)[C@H](CCC(=O)O)NC(=O)[C@H](CC(=O)O)NC(C)=O)C(C)C)[C@@H](C)O)C(=O)N[C@@H](CO)C(=O)NCC(=O)NCC(=O)Nc1ccc(N)c2c1C(=O)c1ccccc1C2=O` [Compound 5768, Acetyl-Asp-Glu-Val-Tbr-Pro-ABA-Ser-Gly-Gly-toxin] (Ac-DEVTP[Abu]SGG-{NH(4-NH2-anthraquinon-1-yl)}): the results for the IC50 in test [1] (setting [6]), in test [3] (setting [13]) and in test [4] (setting [14]) were 14 µM, 32 µM and 24 µM, respectively.

For `CC(=O)N[C@@H](CC(=O)O)C(=O)N[C@@H](CCC(=O)O)C(=O)N[C@H](C(=O)N[C@H](C(=O)N1CCC[C@H]1C(=O)N[C@@H](CS)C(=O)N[C@@H](CO)C(=O)NCC(=O)NCC(=O)Nc1ccc(N)c2c1C(=O)c1ccccc1C2=O)C(C)C)C(C)C` [Compound 5761, Acetyl-Asp-Glu-Val-Val-Pro-Cys-Ser-Gly-Gly-toxin] (Ac-DEVVPCSGG-{NH(4-NH2-anthraquinon-1-yl)}), the IC50 in test [1] (setting [19]) is more than 150 µM; in test [1] (setting [20]) it was more than 150 µM; in test [1] (setting [21]) it was 89 µM; in test [1] (setting [22]), 28 µM; in test [1] (setting [23]) it was 5 µM; in test [2] (setting [7]) it was more than 150 µM. Further, the IC50 in test [2] (setting [8]) is > 150 µM and 126 µM; in test [2] (setting [9]), > 150 µM and 88 µM; in test [3] (setting [13]) it was 24.4 µM; in test [4] (setting [14]) it was 51.1 µM.

As for `CC(=O)N[C@@H](CC(=O)O)C(=O)N[C@@H](CCC(=O)O)C(=O)N[C@H](C(=O)N[C@H](C(=O)N1CCC[C@H]1C(=O)N[C@@H](CS)C(=O)N[C@@H](CO)C(=O)NCC(=O)NCC(=O)Nc1ccc(N)c2c1C(=O)c1ccccc1C2=O)[C@@H](C)O)C(C)C` [Compound 5763, Acetyl-Asp-Glu-Val-Thr-Pro-Cys-Ser-Gly-Gly-toxin] (Ac-DEVTPCSGG-{NH(4-NH2-anthraquinon-1-yl)}), the IC50 in test [1] (setting [19]) is more than 150 µM; in test [1] (setting [20]) it was more than 150 µM; in test [1] (setting [21]) it was 116 µM; in test [1] (setting [22]), 32 µM; in test [1] (setting [23]), 7 µM; in test [1] (setting [15]) it was 146 µM. The IC50 in test [1] (setting [6]) was 6 µM; in test [2] (setting [7]), more than 150 µM; in test [2] (setting [8]), 120 µM; in test [2] (setting [9]), 84 µM; in test [2] (setting [16]), 131 µM; in test [2] (setting [10]), 48 µM. In addition, the IC50 in test [2] (setting [11]) is 17 µM; in test [2] (setting [12]), 17 µM; in test [3] (setting [17]) it was 112 µM; in test [5] (setting [17]), more than 150 µM; in test [4] (setting [18]) it was more than 150 µM.
